According to US10758536B2, “Method for treating shingles with N-methanocarbathymidine (N-MCT)” (priority 2015, dated 2020):
Values after ≈ are worked out from the molar mass of the structure shown.

Test system: VZV
Assay: EC50 determination in HFFs, VZV-BAC-Luc bioluminescence
Format: cell-based, varicella-zoster virus
Protocol: Human foreskin fibroblasts (HFFs) (CCD-1137Sk; American Type Culture Collection), used prior to passage 20 were grown in Eagle minimum essential medium with Earle's salts and L-glutamine (HyClone Laboratories), supplemented with 10% heat-inactivated fetal bovine serum (Benchmark FBS; Gemini Bio Products), penicillin-streptomycin (5000 IU/mL), amphotericin B (250 µg/mL), and nonessential amino acids (all Mediatech). VZV-BAC-Luc (Zhang et al., 2007), derived from the Parental Oka (POka, Accession number: AB097933) strain was propagated in HFFs. To prepare the virus for inoculation, VZV-infected HFFs were trypsinized, then washed and resuspended in TCM, and used immediately for direct injection. Each tissue was injected twice with 30 μL of the cell suspension using a 1 cc syringe fitted with a 27-gauge needle attached to a volumetric stepper (Tridak). […]
The first question we addressed was whether N-MCT was effective against VZV in cultured cells. A standard EC50 evaluation was performed using the VZV-BAC-Luc strain and virus yield was measured by bioluminescence. […]
Cells were treated for 48 hpi (hour post infection) and the medium containing the drug was changed after 24 h. VZV spread was measured by bioluminescence imaging at 48 hpi and expressed as Total Flux (photons/sec/cm^2/steradian). […]

**Q.** With `Cc1cn([C@]23C[C@H](O)[C@@H](CO)[C@@H]2C3)c(=O)[nH]c1=O` [N-MCT, N-methanocarbathymidine] as the molecule, how does the EC50 (Human alphaherpesvirus 3, Fibroblast, human foreskin fibroblasts, VZV-BAC-Luc, bioluminescence at 48 hpi) read?
**A.** 0.06 µg/mL (≈ 0.238 µM)

**Q.** What about the EC50 (Human alphaherpesvirus 3, cultured cells) of the same molecule?
**A.** 0.06 µg/mL (≈ 0.238 µM)
